Laboratory results reported in paper PMC7395068, “The evolution of strategies to minimise the risk of human drug-induced liver injury (DILI) in drug discovery and development” (Archives of Toxicology, 2020).
Like-named read-outs stand apart in the source and are kept apart here.

Columns and labels:
[1] = system: isolated mouse liver mitochondria; details: In vitro Assay; ref Porceddu 2012; cited from earlier work
[2] = ref Chen 2011; cited from earlier work
[3] = cited from earlier work
[4] = cited from earlier work; remark: listed apart in the source
rBsep = details: In vitro Assay; ref Dawson 2012; cited from earlier work
RMPCC's = details: In vitro Assay; ref Khetani 2012; cited from earlier work
human hepatocytes = details: In vitro Assay; ref Xu 2008; cited from earlier work
HepG2 cells [5] = details: In vitro Assay; ref Tolosa 2012; cited from earlier work
Upcyte human hepatocytes = details: In vitro Assay; ref Tolosa 2019; cited from earlier work
HepG2 cells [6] = details: cited from earlier work; for Structural based (HCI): In vitro Assay, ref O'Brien 2006
PHH = details: cited from earlier work; for PHH ATP <100uM: In vitro Assay, ref Proctor 2017
hu-MPCC = details: In vitro Assay; ref Khetani 2012; cited from earlier work
HepG2 cells [7] = details: cited from earlier work; for Cluser analysis / Structural based (HCI): In vitro Assay, ref Persson 2013
hLiMTs [8] = details: cited from earlier work; for hLiMTs ATP <100uM: In vitro Assay, ref Proctor 2017
[9] = system: HepG2 cells, primary human hepatocytes; details: In vitro Assay; ref Garside 2014; cited from earlier work
hLiMTs [10] = system: hLiMTs
[11] = system: primary human hepatocytes, NIH3T3 fibroblasts, BSEP, CYP3A4; details: cited from earlier work
PHH spheroids = details: cited from earlier work
[12] = read-out: Human plasma Cmax; total plasma Cmax.tot, median of 9 literature references; cited from earlier work
[13] = system: THLE-Null and THLE-3A4 cells; details: In vitro Assay; ref Gustafsson 2014; cited from earlier work
hLiMTs [14] = assay: Combined HCI (HCS) and cellular ATP 3D assay in hLiMTs; details: for AC50 / minimal effective concentration: Homo sapiens
HepaRG spheroids [15] = assay: Combined HCI (HCS) and cellular ATP 3D assay in HepaRG spheroids; details: HepaRG; for AC50 / minimal effective concentration: Homo sapiens
[16] = plasma free fraction; cited from earlier work
[17] = Plasma free fraction (fu) and unbound Cmax (Cmax,u); type: in vitro ADME, human; details: unbound plasma Cmax
Description: The prediction of DILI severity was evaluated further using the 3D combined HCI assays using plasma-free fraction. The majority of fu values were obtained from literature, when unavailable in-house prediction was utilised. Unbound plasma Cmax concentrations (Cmax,u) were derived by multiplying total plasma Cmax with the corresponding free fraction (fu) for each compound.

HepaRG spheroids [18] = system: HepaRG spheroids

C[C@@H]1C[C@H]2[C@@H]3CCC4=CC(=O)C=C[C@]4(C)[C@@]3(F)[C@@H](O)C[C@]2(C)[C@@]1(O)C(=O)CO [dexamethasone]
in vitro data EC2<=1x Cmax [1]: -VE | in vitro data EC20<=2uM [1]: -VE | DILI Score (FDA) (1-8) [2]: 3 | DILI +VE (5-8), DILI -VE (-4) ([3]; ref Chen 2016): -VE | DILI severity category ([3]; ref Chen 2016): Ambiguous DILI-concern | In vivo DILI ([4]; […]): -VE | In vivo DILI ([4]; ref Dawson 2012): -VE | In vivo DILI ([4]; ref Garside 2014): -VE | In vivo DILI ([4]; ref Gustafsson 2014): -VE | In vivo DILI ([4]; ref Khetani 2012): -VE | In vivo DILI ([4]; ref O'Brien 2006): -VE | In vivo DILI ([4]; ref Persson 2013): -VE | In vivo DILI ([4]; ref Porceddu 2012): +VE | In vivo DILI ([4]; ref Proctor 2017): -VE | In vivo DILI ([4]; ref Tolosa 2012): -VE | In vivo DILI ([4]; ref Tolosa 2019): -VE | In vivo DILI ([4]; ref Williams 2019): -VE | In vivo DILI ([4]; ref Xu 2008): -VE | Inhibition of rBsep cutoff<1& cmax u>.2 (rBsep): -VE | Inhibition of rBsep cutoff<3 (rBsep): +VE | RMPCC's (RMPCC's): -VE | Structural based (HCI) (human hepatocytes): -VE | Structural based (HCI) (HepG2 cells [5]): -VE | Upcytes multi donor assay 14day data (Upcyte human hepatocytes): -VE | Structural based (HCI) (HepG2 cells [6]): -VE | PHH ATP <100uM (PHH): -VE | HMPCC's (hu-MPCC): -VE | Cluser analysis (HepG2 cells [7]): -VE | Structural based (HCI) (HepG2 cells [7]): -VE | hLiMTs ATP <100uM (hLiMTs [8]): -VE | Cluster 1-6 +VE Assay [9]: -VE

CC(=O)N1CCN(c2ccc(OCC3COC(Cn4ccnc4)(c4ccc(Cl)cc4Cl)O3)cc2)CC1 (stereo not shown) [ketoconazole, reference compound]
DILI prediction hLiMTs (HCS-MEC) (hLiMTs [10]): +VE (key: +VE: MEC < 25 × Cmax.tot cut-off) | Cellular toxicity (3T3 cells) [11]: -VE | Combined Assay [11]: +VE | DILI in vitro assay prediction, Schadt (2015) [11]: +VE | GSH adduct HML [11]: -VE | Hepatocyte cellular toxicity [11]: +VE | MitoTox 3T3 [11]: -VE | TDI CYP3A4 [11]: -VE | hBSEP inhibition [11]: +VE | in vitro data EC2<=1x Cmax [1]: +VE | in vitro data EC20<=2uM [1]: -VE | DILI Score (FDA) (1-8) [2]: 8 | hLiMTs ATP <20 x Cmax (PHH spheroids; In vitro Assay, ref Vorrink 2018): +VE (IC20 < 20 × Cmax.tot cut-off) | DILI in vitro assay prediction, Vorrink (2018) (PHH spheroids; PHH spheroids, ATP, 14 days, IC20 < 20 × Cmax.tot, ref Vorrink et al. 2018): +VE (IC20 < 20 × Cmax.tot cut-off) | DILI severity category (Chen et al. [2016]) ([3]; LTKB DILIrank category, ref Chen et al. 2016): Most | DILI severity category (Chen 2016) ([3]; human DILI classification, LTKB DILIrank, ref Chen et al. 2016): Most | DILI severity category ([3]; human DILI severity, ref Chen et al.): Most | DILI +VE (5-8), DILI -VE (-4) ([3]; ref Chen 2016): +VE | DILI severity category ([3]; ref Chen 2016): vMost-DILI-Concern | Assigned DILI category ([4]; Chen et al. 2016 or literature alignment, ref Chen et al. 2016): 3 | In vivo DILI ([4]; […]): +VE | In vivo DILI ([4]; ref Albrecht 2019): +VE | In vivo DILI ([4]; ref Aleo 2019): +VE | In vivo DILI ([4]; ref Dawson 2012): +VE | In vivo DILI ([4]; ref Garside 2014): +VE | In vivo DILI ([4]; ref Gustafsson 2014): +VE | In vivo DILI ([4]; ref O'Brien 2006): +VE | In vivo DILI ([4]; ref Persson 2013): +VE | In vivo DILI ([4]; ref Porceddu 2012): +VE | In vivo DILI ([4]; ref Proctor 2017): +VE | In vivo DILI ([4]; ref Schadt 2015): +VE | In vivo DILI ([4]; ref Tolosa 2019): +VE | In vivo DILI ([4]; ref Vorrink 2018): +VE | In vivo DILI ([4]; ref Williams 2019): +VE | Cmax [12]: 11.3 µM | THLE-Null [13]: +VE | Inhibition of rBsep cutoff<1& cmax u>.2 (rBsep): +VE | Inhibition of rBsep cutoff<3 (rBsep): +VE | AC50 (hLiMTs [14]; read-out: ATP endpoint AC50): 9.09 µM | minimal effective concentration (hLiMTs [14]; read-out: ATP endpoint MEC): 6.84 µM | AC50 (hLiMTs [14]; read-out: HCS endpoint AC50): 12.4 µM | minimal effective concentration (hLiMTs [14]; read-out: HCS endpoint MEC): 5.88 µM | hLiMTs <25x Avg Cmax ATP (hLiMTs [14]; hLiMTs, ATP endpoint, cut-off <25x Avg Cmax): +ve | hLiMTs <100x Avg Cmaxu ATP (hLiMTs [14]; hLiMTs, ATP endpoint, cut-off <100x Avg Cmaxu): +ve (<100x Avg Cmaxu) | hLiMTs <25x Avg Cmax HCS (hLiMTs [14]; hLiMTs, HCS endpoints, cut-off <25x Avg Cmax): +ve | hLiMTs <100x Avg Cmaxu HCS (hLiMTs [14]; hLiMTs, HCS endpoints, cut-off <100x Avg Cmaxu): +ve (<100x Avg Cmaxu) | hLiMTs <25x Avg Cmax All (hLiMTs [14]; hLiMTs, all endpoints (ATP and HCS), cut-off <25x Avg Cmax): +ve | hLiMTs Cmax max All (hLiMTs [14]; hLiMTs, all endpoints, Cmax max used): +ve | hLiMTs Cmax min All (hLiMTs [14]; hLiMTs, all endpoints, Cmax min used): +ve | hLiMTs <10 uM All (hLiMTs [14]; hLiMTs, all endpoints, cut-off <10 uM): +ve (<10 uM) | hLiMTs <100x Avg Cmaxu All (hLiMTs [14]; hLiMTs, all endpoints, cut-off <100x Avg Cmaxu): +ve (<100x Avg Cmaxu) | HepaRG <25x Avg Cmax ATP (HepaRG spheroids [15]; ATP endpoint, cut-off <25x Avg Cmax): +ve | HepaRG <100x Avg Cmaxu ATP (HepaRG spheroids [15]; ATP endpoint, cut-off <100x Avg Cmaxu): +ve (<100x Avg Cmaxu) | HepaRG <25x Avg Cmax HCS (HepaRG spheroids [15]; HCS endpoints, cut-off <25x Avg Cmax): +ve | HepaRG <100x Avg Cmaxu HCS (HepaRG spheroids [15]; HCS endpoints, cut-off <100x Avg Cmaxu): +ve (<100x Avg Cmaxu) | HepaRG <25x Avg Cmax All (HepaRG spheroids [15]; all endpoints (ATP and HCS), cut-off <25x Avg Cmax): +ve | HepaRG Cmax max All (HepaRG spheroids [15]; all endpoints, Cmax max used): +ve | HepaRG Cmax min All (HepaRG spheroids [15]; all endpoints, Cmax min used): +ve | HepaRG <10 uM All (HepaRG spheroids [15]; all endpoints, cut-off <10 uM): +ve (<10 uM) | HepaRG <100x Avg Cmaxu All (HepaRG spheroids [15]; all endpoints, cut-off <100x Avg Cmaxu): +ve (<100x Avg Cmaxu) | AC50 (HepaRG spheroids [15]; read-out: ATP endpoint AC50): 8.42 µM | minimal effective concentration (HepaRG spheroids [15]; read-out: ATP endpoint MEC): 7.27 µM | AC50 (HepaRG spheroids [15]; read-out: HCS endpoint AC50): 15.4 µM | minimal effective concentration (HepaRG spheroids [15]; read-out: HCS endpoint MEC): 0.713 µM | fu [16]: 0.050 | Human plasma Cmax,u [17]: 0.565 µM | Upcytes multi donor assay 14day data (Upcyte human hepatocytes): +VE | DILI prediction HepaRG spheroids (HCS-MEC) (HepaRG spheroids [18]): +VE (key: +VE: MEC < 25 × Cmax.tot cut-off) | Structural based (HCI) (HepG2 cells [6]): +VE | DILI in vitro assay prediction, O'Brien (2006) (HepG2 cells [6]; Structural based (HCI), HepG2, ref O'Brien et al. 2006): +VE (lowest HCI endpoint IC50 (or in the absence of dose–response < 100 µM) < 30 × total human plasma exposure levels (Cmax.tot)) | PHH/100uM, Proctor (2017) (PHH; 2D PHH, ATP, IC50 threshold 100 µM, ref Proctor et al. 2017): +VE (IC50 threshold of 100 µM) | PHH ATP <100uM (PHH): +VE (IC50 threshold of 100 µM) | Cluser analysis (HepG2 cells [7]): +VE | Structural based (HCI) (HepG2 cells [7]): +VE | DILI in vitro assay prediction, Persson (2013) (HepG2 cells [7]; Structural based (HCI), HepG2, ref Persson et al. 2013): +VE | hLiMTs ATP <100uM (hLiMTs [8]): +VE (IC50 threshold of 100 µM) | hLiMTs/100uM, Proctor (2017) (hLiMTs [8]; hLiMTs, ATP, IC50 threshold 100 µM, ref Proctor et al. 2017): +VE (IC50 threshold of 100 µM) | Cluster 1-6 +VE Assay [9]: +VE
